Source: patent US9233989B2, “Sila analogs of oxazolidinone derivatives and synthesis thereof” (Council of Scientific & Industrial Research, priority 2011, dated 2016)
In brackets after ≈: the same amount, converted by molar mass.

Tests used:
[1] = system: S.aureus ATCC 49775 PVL + ve; assay type: cell-based
[2] = system: S.aureus ATCC Newman 25904; assay: MIC by microbroth dilution method; assay type: cell-based
E.faecalis SP 346 VRE = assay: MIC by microbroth dilution method; assay type: cell-based
[3] = system: E.faecalis ATCC 51299(VRE&HLAR); assay: MIC by microbroth dilution method; assay type: cell-based
E.faecium ATCC 19434 = assay: MIC by microbroth dilution method; assay type: cell-based
MRSA 0-2657 = assay: MIC by microbroth dilution method; assay type: cell-based, S. aureus
S.aureus2 (PVL + ve) = assay type: cell-based, S. aureus
[4] = system: S.aureus ATCC 700699 Mu50; assay: MIC by microbroth dilution method; assay type: cell-based
MRSE ATCC 35983 = assay: MIC by microbroth dilution method; assay type: cell-based, S. epidermidis
[5] = system: S.aureus 13709 LNZ mutant; assay type: cell-based
MRSE ATCC 35984 = assay: MIC by microbroth dilution method; assay type: cell-based, S. epidermidis
E.faecium ATCC 35667 = assay: MIC by microbroth dilution method; assay type: cell-based
MRSA DB 00026 = assay: MIC by microbroth dilution method; assay type: cell-based, S. aureus
S.aureus DB00026 = assay: MIC by microbroth dilution method; assay type: cell-based
S.epidermis St 358 = assay: MIC by microbroth dilution method; assay type: cell-based, S. epidermidis
E.faecium ATCC 49224 = assay: MIC by microbroth dilution method; assay type: cell-based
E.faecium 6A VRE = assay: MIC by microbroth dilution method; assay type: cell-based
E.faecalis ATCC 29212 = assay: MIC by microbroth dilution method; assay type: cell-based
MRSA ATCC BAA 39 = assay: MIC by microbroth dilution method; assay type: cell-based, S. aureus
E.faecium ATCC 3567 = assay: MIC by microbroth dilution method; assay type: cell-based
E.faecalis ATCC 19433 = assay: MIC by microbroth dilution method; assay type: cell-based
MRSA 562 = assay: MIC by microbroth dilution method; assay type: cell-based, S. aureus
MRSA 252 BAA 1720 = assay: MIC by microbroth dilution method; assay type: cell-based, S. aureus
E.coli 7632 = assay: MIC by microbroth dilution method; assay type: cell-based
S.aureus ATCC 29213 = assay: MIC by microbroth dilution method; assay type: cell-based
[6] = system: S.aureus ATCC 13709 Smith; assay: MIC by microbroth dilution method; assay type: cell-based
MRSA ATCC 43300 = assay: MIC by microbroth dilution method; assay type: cell-based, S. aureus
S.epidermidis ATCC 14990 = assay: MIC by microbroth dilution method; assay type: cell-based
S.epidermidis ATCC 12228 = assay: MIC by microbroth dilution method; assay type: cell-based
E.faecium 06076 VRE = assay: MIC by microbroth dilution method; assay type: cell-based
E.faecium 134 VRE = assay: MIC by microbroth dilution method; assay type: cell-based
[7] = system: Mycobacterium tuberculosis H37Rv; assay: Anti-TB activity, colorimetric resazurin microtiter assay; assay type: cell-based; settings: Mycobacterium tuberculosis, H37RV, read-out: MIC, Minimum Inhibitory Concentration (90%)

Row | SMILES | MIC [1] | MIC [2] | MIC (E.faecalis SP 346 VRE) | MIC [3] | MIC (E.faecium ATCC 19434) | MIC (MRSA 0-2657) | MIC (S.aureus2 (PVL + ve)) | MIC [4] | MIC (MRSE ATCC 35983) | MIC [5] | MIC (MRSE ATCC 35984) | MIC (E.faecium ATCC 35667) | MIC (MRSA DB 00026) | MIC (S.aureus DB00026) | MIC (S.epidermis St 358) | MIC (E.faecium ATCC 49224) | MIC (E.faecium 6A VRE) | MIC (E.faecalis ATCC 29212) | MIC (MRSA ATCC BAA 39) | MIC (E.faecium ATCC 3567) | also measured
1 | C[Si]1(C)CCN(c2c(F)cc(N3C[C@H](CO)OC3=O)cc2F)CC1 [NDS-10052, (R)-3-(4-(4,4-dimethyl-1,4-azasilinan-1-yl)-3,5-difluorophenyl)-5-(hydroxymethyl)oxazolidin-2-one] | > 32 µg/mL | > 32 µg/mL | > 32 µg/mL | > 32 µg/mL | 16 µg/mL (≈ 44.9 µM) | > 32 µg/mL | > 32 µg/mL | 8 µg/mL (≈ 22.4 µM) | > 32 µg/mL | > 32 µg/mL | 32 µg/mL (≈ 89.8 µM) | 32 µg/mL (≈ 89.8 µM) | > 32 µg/mL | 32 µg/mL (≈ 89.8 µM) | > 32 µg/mL | 8 µg/mL (≈ 22.4 µM) | 8 µg/mL (≈ 22.4 µM) | > 32 µg/mL | 16 µg/mL (≈ 44.9 µM) | 32 µg/mL (≈ 89.8 µM) | melting point: 126 to 128 °C; MIC (E.faecalis ATCC 19433): > 32 µg/mL; MIC (MRSA 562): 16 µg/mL (≈ 44.9 µM); MIC (MRSA 252 BAA 1720): > 32 µg/mL; MIC (E.coli 7632): > 32 µg/mL; MIC (S.aureus ATCC 29213): > 32 µg/mL; MIC [6]: > 32 µg/mL; MIC (MRSA ATCC 43300): > 32 µg/mL; MIC (S.epidermidis ATCC 14990): 16 µg/mL (≈ 44.9 µM); MIC (S.epidermidis ATCC 12228): > 32 µg/mL; MIC (E.faecium 06076 VRE): > 32 µg/mL; MIC (E.faecium 134 VRE): > 32 µg/mL
2 | COC(=S)NC[C@H]1CN(c2ccc(N3CC[Si](C)(C)CC3)c(F)c2)C(=O)O1 [NDS-10062, (S)—O-methyl((3-(4-(4,4-dimethyl-1,4-azasilinan-1-yl)-3-fluorophenyl)-2-oxooxazolidin-5-yl)methyl)carbamothioate] | 4 µg/mL (≈ 9.72 µM) | 4 µg/mL (≈ 9.72 µM) | 4 µg/mL (≈ 9.72 µM) | 4 µg/mL (≈ 9.72 µM) | 8 µg/mL (≈ 19.4 µM) | 4 µg/mL (≈ 9.72 µM) | 4 µg/mL (≈ 9.72 µM) | 8 µg/mL (≈ 19.4 µM) | 4 µg/mL (≈ 9.72 µM) | 4 µg/mL (≈ 9.72 µM) | 2 µg/mL (≈ 4.86 µM) | 4 µg/mL (≈ 9.72 µM) | 4 µg/mL (≈ 9.72 µM) | 4 µg/mL (≈ 9.72 µM) | 4 µg/mL (≈ 9.72 µM) | 4 µg/mL (≈ 9.72 µM) | 8 µg/mL (≈ 19.4 µM) | 1 µg/mL (≈ 2.43 µM) | 4 µg/mL (≈ 9.72 µM) | 4 µg/mL (≈ 9.72 µM) | MIC (E.faecalis ATCC 19433): 2 µg/mL (≈ 4.86 µM); MIC (MRSA 562): 4 µg/mL (≈ 9.72 µM); MIC (MRSA 252 BAA 1720): 8 µg/mL (≈ 19.4 µM); MIC (E.coli 7632): 2 µg/mL (≈ 4.86 µM); MIC (S.aureus ATCC 29213): 4 µg/mL (≈ 9.72 µM); MIC [6]: 4 µg/mL (≈ 9.72 µM); MIC [7]: 50 µg/mL (≈ 121 µM); MIC (MRSA ATCC 43300): 4 µg/mL (≈ 9.72 µM); MIC (S.epidermidis ATCC 14990): 4 µg/mL (≈ 9.72 µM); MIC (S.epidermidis ATCC 12228): > 32 µg/mL; MIC (E.faecium 06076 VRE): 4 µg/mL (≈ 9.72 µM); MIC (E.faecium 134 VRE): 4 µg/mL (≈ 9.72 µM)
3 | C[Si]1(c2ccccc2)CCN(c2c(F)cc(N3C[C@H](CN)OC3=O)cc2F)CC1 [NDS-10070, (S)-5-(aminomethyl)-3-(3,5-difluoro-4-(4-methyl-4-phenyl-1,4-azasilinan-1-yl)phenyl)oxazolidin-2-one] | > 32 µg/mL | > 32 µg/mL | > 32 µg/mL | 32 µg/mL (≈ 76.6 µM) | 32 µg/mL (≈ 76.6 µM) | > 32 µg/mL | > 32 µg/mL | > 32 µg/mL | > 32 µg/mL | > 32 µg/mL | 32 µg/mL (≈ 76.6 µM) | 32 µg/mL (≈ 76.6 µM) | > 32 µg/mL | > 32 µg/mL | > 32 µg/mL | 32 µg/mL (≈ 76.6 µM) | > 32 µg/mL | 32 µg/mL (≈ 76.6 µM) | > 32 µg/mL | > 32 µg/mL | MIC (E.faecalis ATCC 19433): 32 µg/mL (≈ 76.6 µM); MIC (MRSA 562): 32 µg/mL (≈ 76.6 µM); MIC (MRSA 252 BAA 1720): > 32 µg/mL; MIC (E.coli 7632): 32 µg/mL (≈ 76.6 µM); MIC (S.aureus ATCC 29213): > 32 µg/mL; MIC [6]: > 32 µg/mL; MIC [7]: 50 µg/mL (≈ 120 µM); MIC (MRSA ATCC 43300): > 32 µg/mL; MIC (S.epidermidis ATCC 14990): > 32 µg/mL; MIC (S.epidermidis ATCC 12228): > 32 µg/mL; MIC (E.faecium 06076 VRE): > 32 µg/mL; MIC (E.faecium 134 VRE): > 32 µg/mL
4 | C[Si]1(c2ccccc2)CCN(c2c(F)cc(N3C[C@H](CO)OC3=O)cc2F)CC1 [NDS-10071, (R)-3-(3,5-difluoro-4-(4-methyl-4-phenyl-1,4-azasilinan-1-yl)phenyl)-5-(hydroxylmethyl)oxazolidin-2-one] | 16(ppt) | 16 µg/mL (≈ 38.2 µM) | 16(ppt) | 32 µg/mL (≈ 76.5 µM) | 32 µg/mL (≈ 76.5 µM) | 8(ppt) | 32 µg/mL (≈ 76.5 µM) | 32 µg/mL (≈ 76.5 µM) | 16 µg/mL (≈ 38.2 µM) | 16(ppt) | 16 µg/mL (≈ 38.2 µM) | 16 µg/mL (≈ 38.2 µM) | 16 µg/mL (≈ 38.2 µM) | 32 µg/mL (≈ 76.5 µM) | 16 µg/mL (≈ 38.2 µM) | 32 µg/mL (≈ 76.5 µM) | 32 µg/mL (≈ 76.5 µM) | 8 µg/mL (≈ 19.1 µM) | 32 µg/mL (≈ 76.5 µM) | > 32 µg/mL | melting point: 105 to 107 °C; MIC (E.faecalis ATCC 19433): 16 µg/mL (≈ 38.2 µM); MIC (MRSA 562): 32 µg/mL (≈ 76.5 µM); MIC (MRSA 252 BAA 1720): 32 µg/mL (≈ 76.5 µM); MIC (E.coli 7632): 16 µg/mL (≈ 38.2 µM); MIC (S.aureus ATCC 29213): > 32 µg/mL; MIC [6]: 32 µg/mL (≈ 76.5 µM); MIC [7]: 50 µg/mL (≈ 119 µM); MIC (MRSA ATCC 43300): > 32 µg/mL; MIC (S.epidermidis ATCC 14990): 16 µg/mL (≈ 38.2 µM); MIC (S.epidermidis ATCC 12228): > 32 µg/mL; MIC (E.faecium 06076 VRE): 32 µg/mL (≈ 76.5 µM); MIC (E.faecium 134 VRE): 8 µg/mL (≈ 19.1 µM)
